Measurements: US20100093706A1, “MULTIMEDIATOR TRANSPORTER INHIBITORS FOR USE IN TREATMENT OF CENTRAL NERVOUS SYSTEM DISORDERS” (priority 2006, published 2010)

How the values were obtained:
DAT (SLC6A3) = molecular target: T1, DAT (SLC6A3) (Homo sapiens, UniProt Q01959); assay: in vitro inhibition profile, IC50 of DAT (uptake assay); assay type: cell-based
T1 construct: expressed in transfected cells
Experimental: Before the assay, cells expressing DAT are washed once with KRH and equilibrated for 5 min. The cells may be assayed in 24-well plates and incubated for 2-5 min. with tritiated amines. Nontransported inhibitors were preincubated for 5 min, and substrates were applied together with the tritiated substrate.
Experiments to determine the ionic requirements for DAT-mediated uptake are done in KRH buffer, substituting LiCl or choline Cl for NaCl (sodium-dependence) or substituting D-gluconates for NaCl and KCl, and Ca(NO3)2 for CaCl2 (chloride dependence). Cells are washed twice with sodium- or chloride-free KRH before the assay (each wash step at least 5 min). In all transport assays, incubation periods and substrate concentrations are chosen such that uptake obeyed first-order rate kinetics.
Vmax values for amine uptake in stable transfected DAT-cells are determined in parallel assays for at least two amines per experiment and expressed as relative values.

rat = assay: acute single-dose toxicology in rat; assay type: in vivo
Experimental: An in vivo evaluation was carried out to determine the maximum tolerated dose of numerous test compounds in rat. The compounds were administered i.v., and the animals were then observed for 72 hours.
Briefly, experimental rats, in groups of 5 animals, were administered with various doses of respective inhibitors (e.g. 30, 90, 120, and 200 mg/kg), and the observed toxicological effects were recorded.

Sprague-Dawley rats = assay: 7 day multidose oral dosing toxicology study; assay type: in vivo, rat
Text: The representative results are listed below in Table VI.

NET (h) = molecular target: T2, NET (h) (Homo sapiens, UniProt P23975); assay: cell-based; assay type: cell-based; details: human; nM; read-out: NET (h) in vitro functional uptake
T2 construct: expressed in transfected cells; host or cells: MDCK
T2 sequence (P23975 whole entry): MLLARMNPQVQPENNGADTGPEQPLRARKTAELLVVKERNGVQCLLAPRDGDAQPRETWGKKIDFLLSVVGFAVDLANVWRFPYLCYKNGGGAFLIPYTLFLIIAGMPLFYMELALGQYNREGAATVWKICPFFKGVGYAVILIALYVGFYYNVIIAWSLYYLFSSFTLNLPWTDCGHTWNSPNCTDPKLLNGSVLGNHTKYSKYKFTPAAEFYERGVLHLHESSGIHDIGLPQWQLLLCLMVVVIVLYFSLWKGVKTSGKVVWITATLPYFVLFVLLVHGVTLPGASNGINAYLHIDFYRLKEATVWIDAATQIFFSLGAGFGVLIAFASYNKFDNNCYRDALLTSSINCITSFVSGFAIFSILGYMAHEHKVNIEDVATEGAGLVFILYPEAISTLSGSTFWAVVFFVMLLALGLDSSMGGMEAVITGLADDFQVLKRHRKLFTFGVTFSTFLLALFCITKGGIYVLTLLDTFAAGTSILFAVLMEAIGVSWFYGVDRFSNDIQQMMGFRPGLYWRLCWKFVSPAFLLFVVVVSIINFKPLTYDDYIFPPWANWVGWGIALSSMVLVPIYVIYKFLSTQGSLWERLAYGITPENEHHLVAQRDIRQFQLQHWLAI
Experimental: (§1) Functional activity of the compounds was determined in vitro in cellular assays using recombinant human cell lines.

DAT (h) = molecular target: T3, DAT (h) (Homo sapiens, UniProt Q01959); assay: cell-based; assay type: cell-based; details: human; nM; read-out: DAT (h) in vitro functional uptake
T3 construct: expressed in transfected cells
T3 sequence (Q01959 whole entry): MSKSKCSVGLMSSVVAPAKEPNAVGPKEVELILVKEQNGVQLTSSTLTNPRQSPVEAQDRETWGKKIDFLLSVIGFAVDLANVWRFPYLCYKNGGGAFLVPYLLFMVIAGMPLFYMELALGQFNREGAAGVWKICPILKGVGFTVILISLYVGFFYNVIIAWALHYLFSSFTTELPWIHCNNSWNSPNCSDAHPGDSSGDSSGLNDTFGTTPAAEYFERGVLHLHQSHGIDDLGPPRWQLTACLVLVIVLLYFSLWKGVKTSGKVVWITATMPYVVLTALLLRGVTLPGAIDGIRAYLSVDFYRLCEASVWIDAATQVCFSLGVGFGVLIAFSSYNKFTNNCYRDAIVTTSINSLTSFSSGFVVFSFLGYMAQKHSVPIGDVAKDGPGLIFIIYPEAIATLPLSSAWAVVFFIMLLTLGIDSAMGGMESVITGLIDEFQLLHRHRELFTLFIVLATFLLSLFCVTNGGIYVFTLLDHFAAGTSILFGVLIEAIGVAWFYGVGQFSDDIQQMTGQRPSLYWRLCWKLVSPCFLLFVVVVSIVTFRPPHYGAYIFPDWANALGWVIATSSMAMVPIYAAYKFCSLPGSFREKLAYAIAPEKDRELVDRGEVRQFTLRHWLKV
Experimental: as §1

T1 sequence (Q01959 whole entry): as above

## CC1CCN(CC2(c3ccc(Cl)cc3)CCC2)CC1COc1ccc(C(F)(F)F)cc1 (centres unmarked) [(1)]
DAT (SLC6A3)
  IC50: 1 nM
rat; rat (n = 5), 200 mg/kg, i.v., observed 72 hours
  acute single dose toxicology, observed symptoms: decreased grip strength, and slight depression
rat; rat, doses below 120 mg/kg
  acute single dose toxicology, observed symptoms: no significant observed symptoms
Sprague-Dawley rats; Sprague-Dawley rats n = 6 (3M/3F), oral 100 mg/kg/day, 100 mg/kg/day
  7 day multidose oral toxicology, symptoms: did not display any significant symptoms
Sprague-Dawley rats; n = 6, oral 200 mg/kg/day
  7 day multidose oral toxicology, self-mutilation (number of animals): 1 self-mutilation
Sprague-Dawley rats; n = 6, oral 400 mg/kg/day
  7 day multidose oral toxicology, self-mutilation (number of animals): 3 self-mutilation
NET (h)
  EC50: 1000 nM
DAT (h)
  EC50: 1 nM
